# Assay results published in PubChem BioAssay AID1963450 (Molecular Pharmacology Branch, DTP, NCI, 2024).
# System: 556581-035-R-J1-PDC complex spheroid growth
# Assay: Anticancer human tumor 556581-035-R-J1-PDC patient-derived ovarian carcinoma cell line growth inhibition [Asc]
# Conditions: for IC50: curve of first compound; for viability, T/C: stronger effect = lower value
# In short: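 Stromal components (HUVEC and hMSC) are co-assembled with the cancer cells into multicellular spheroids. Drugs are then added singly or paired, at concentrations falling by half-log increments from a clinically achievable maximum, capped at 10 microM without known Cmax.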
# [1] = second compound 0.1 µM, first compound 0.00316 µM
# [2] = second compound 0.1 µM, first compound 0.01 µM
# [3] = second compound 0.1 µM, first compound 0.0316 µM
# [4] = second compound 0.1 µM, first compound 0.1 µM
# [5] = second compound 0.1 µM, first compound 0.316 µM
# [6] = second compound 0.1 µM, first compound 1 µM
# [7] = second compound 0.316 µM, first compound 0.00316 µM
# [8] = second compound 0.316 µM, first compound 0.01 µM
# [9] = second compound 0.316 µM, first compound 0.0316 µM
# [10] = second compound 0.316 µM, first compound 0.1 µM
# [11] = second compound 0.316 µM, first compound 0.316 µM
# [12] = second compound 0.316 µM, first compound 1 µM
# [13] = second compound 1 µM, first compound 0.00316 µM
# [14] = second compound 1 µM, first compound 0.01 µM
# [15] = second compound 1 µM, first compound 0.0316 µM
# [16] = second compound 1 µM, first compound 0.1 µM
# [17] = second compound 1 µM, first compound 0.316 µM
# [18] = second compound 1 µM, first compound 1 µM
# [19] = second compound 3.16 µM, first compound 0.0316 µM
# [20] = second compound 3.16 µM, first compound 0.1 µM
# [21] = second compound 3.16 µM, first compound 0.316 µM
# [22] = second compound 3.16 µM, first compound 1 µM
# [23] = second compound 10 µM, first compound 0.0316 µM
# [24] = second compound 10 µM, first compound 0.1 µM
# [25] = second compound 10 µM, first compound 0.316 µM
# [26] = second compound 10 µM, first compound 1 µM
# 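Note: spheroids exposed to agents for 7 days before viability read.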
smiles,measurement,setting,value
CCN1C(C(=O)NC23CCC(C(=O)O)(CC2)CC3)C(c2cccc(Cl)c2F)C2(C(=O)Nc3cc(Cl)ccc32)C12CCCCC2 (stereo not given) + CNC(C)C(=O)NC1CN(S(=O)(=O)c2cccc(S(=O)(=O)N3CCC4CCC(C(=O)NC(c5ccccc5)c5ccccc5)N4C(=O)C(NC(=O)C(C)NC)C3)c2)CCC2CCC(C(=O)NC(c3ccccc3)c3ccccc3)N2C1=O,IC50,second compound 0.01 µM,> 3000 nM
same,IC50,second compound 0.0316 µM,> 3000 nM
same,IC50,second compound 0.1 µM,> 3000 nM
same,IC50,second compound 0.316 µM,> 3000 nM
same,IC50,second compound 1 µM,> 3000 nM
same,"viability, T/C","second compound 0.01 µM, first compound 0.00949 µM",82.8%
same,"viability, T/C","second compound 0.01 µM, first compound 0.03 µM",98.8%
same,"viability, T/C","second compound 0.01 µM, first compound 0.0949 µM",97.1%
same,"viability, T/C","second compound 0.01 µM, first compound 0.3 µM",86.2%
same,"viability, T/C","second compound 0.01 µM, first compound 0.949 µM",92.2%
same,"viability, T/C","second compound 0.01 µM, first compound 3 µM",86.9%
same,"viability, T/C","second compound 0.0316 µM, first compound 0.00949 µM",83.2%
same,"viability, T/C","second compound 0.0316 µM, first compound 0.03 µM",85.7%
same,"viability, T/C","second compound 0.0316 µM, first compound 0.0949 µM",82.3%
same,"viability, T/C","second compound 0.0316 µM, first compound 0.3 µM",87.8%
same,"viability, T/C","second compound 0.0316 µM, first compound 0.949 µM",91.2%
same,"viability, T/C","second compound 0.0316 µM, first compound 3 µM",102%
same,"viability, T/C","second compound 0.1 µM, first compound 0.00949 µM",79%
same,"viability, T/C","second compound 0.1 µM, first compound 0.03 µM",88.9%
same,"viability, T/C","second compound 0.1 µM, first compound 0.0949 µM",84.3%
same,"viability, T/C","second compound 0.1 µM, first compound 0.3 µM",67.7%
same,"viability, T/C","second compound 0.1 µM, first compound 0.949 µM",90%
same,"viability, T/C","second compound 0.1 µM, first compound 3 µM",90.3%
same,"viability, T/C","second compound 0.316 µM, first compound 0.00949 µM",77.1%
same,"viability, T/C","second compound 0.316 µM, first compound 0.03 µM",78.9%
same,"viability, T/C","second compound 0.316 µM, first compound 0.0949 µM",77.6%
same,"viability, T/C","second compound 0.316 µM, first compound 0.3 µM",84.9%
same,"viability, T/C","second compound 0.316 µM, first compound 0.949 µM",73.4%
same,"viability, T/C","second compound 0.316 µM, first compound 3 µM",69.7%
same,"viability, T/C","second compound 1 µM, first compound 0.00949 µM",71.5%
same,"viability, T/C","second compound 1 µM, first compound 0.03 µM",72.5%
same,"viability, T/C","second compound 1 µM, first compound 0.0949 µM",65.9%
same,"viability, T/C","second compound 1 µM, first compound 0.3 µM",68.4%
same,"viability, T/C","second compound 1 µM, first compound 0.949 µM",68%
same,"viability, T/C","second compound 1 µM, first compound 3 µM",72.4%
COc1c(OCCCN2CCOCC2)ccc2c3n(c(=NC(=O)c4cnc(N)nc4)nc12)CCN3 + CNC(C)C(=O)NC1CN(S(=O)(=O)c2cccc(S(=O)(=O)N3CCC4CCC(C(=O)NC(c5ccccc5)c5ccccc5)N4C(=O)C(NC(=O)C(C)NC)C3)c2)CCC2CCC(C(=O)NC(c3ccccc3)c3ccccc3)N2C1=O,IC50,second compound 0.01 µM,17.2 nM
same,IC50,second compound 0.0316 µM,22 nM
same,IC50,second compound 0.1 µM,9.5 nM
same,IC50,second compound 0.316 µM,14.5 nM
same,IC50,second compound 1 µM,9.84 nM
same,"viability, T/C","second compound 0.01 µM, first compound 0.00316 µM",70.3%
same,"viability, T/C","second compound 0.01 µM, first compound 0.01 µM",58.8%
same,"viability, T/C","second compound 0.01 µM, first compound 0.0316 µM",37.7%
same,"viability, T/C","second compound 0.01 µM, first compound 0.1 µM",35.7%
same,"viability, T/C","second compound 0.01 µM, first compound 0.316 µM",19.1%
same,"viability, T/C","second compound 0.01 µM, first compound 1 µM",12.2%
same,"viability, T/C","second compound 0.0316 µM, first compound 0.00316 µM",64.2%
same,"viability, T/C","second compound 0.0316 µM, first compound 0.01 µM",58.2%
same,"viability, T/C","second compound 0.0316 µM, first compound 0.0316 µM",45.4%
same,"viability, T/C","second compound 0.0316 µM, first compound 0.1 µM",35.5%
same,"viability, T/C","second compound 0.0316 µM, first compound 0.316 µM",22.4%
same,"viability, T/C","second compound 0.0316 µM, first compound 1 µM",9.75%
same,"viability, T/C",[1],58.6%
same,"viability, T/C",[2],49.9%
same,"viability, T/C",[3],38.5%
same,"viability, T/C",[4],31.6%
same,"viability, T/C",[5],19.3%
same,"viability, T/C",[6],10.5%
same,"viability, T/C",[7],64.6%
same,"viability, T/C",[8],53.1%
same,"viability, T/C",[9],42.4%
same,"viability, T/C",[10],27.5%
same,"viability, T/C",[11],16.4%
same,"viability, T/C",[12],9.55%
same,"viability, T/C",[13],60.7%
same,"viability, T/C",[14],47.1%
same,"viability, T/C",[15],40.9%
same,"viability, T/C",[16],27.3%
same,"viability, T/C",[17],14.9%
same,"viability, T/C",[18],7.78%
CNC(C)C(=O)NC1CN(S(=O)(=O)c2cccc(S(=O)(=O)N3CCC4CCC(C(=O)NC(c5ccccc5)c5ccccc5)N4C(=O)C(NC(=O)C(C)NC)C3)c2)CCC2CCC(C(=O)NC(c3ccccc3)c3ccccc3)N2C1=O (stereo not given) + Cc1c(S(C)(=O)=O)c(-c2cc(F)cc(N3CCN(c4ccc(NS(=O)(=O)c5ccc(NC(CCN6CCC(C(=O)OCCCP(=O)(O)O)CC6)CSc6ccccc6)c(S(=O)(=O)C(F)(F)F)c5)cc4)CC3)c2)c(-c2ccc(Cl)cc2)n1C(C)C,IC50,second compound 0.1 µM,87.3 nM
same,IC50,second compound 0.316 µM,73.8 nM
same,IC50,second compound 1 µM,49.9 nM
same,IC50,second compound 3.16 µM,6.27 nM
same,IC50,second compound 10 µM,< 3.16 nM
same,"viability, T/C",[1],68.6%
same,"viability, T/C",[2],69.5%
same,"viability, T/C",[3],60%
same,"viability, T/C",[4],48%
same,"viability, T/C",[5],49.1%
same,"viability, T/C",[6],41.1%
same,"viability, T/C",[7],60.2%
same,"viability, T/C",[8],73.3%
same,"viability, T/C",[9],68.4%
same,"viability, T/C",[10],43.7%
same,"viability, T/C",[11],41%
same,"viability, T/C",[12],26%
same,"viability, T/C",[13],61.8%
same,"viability, T/C",[14],53.2%
same,"viability, T/C",[15],67.3%
same,"viability, T/C",[16],33.5%
same,"viability, T/C",[17],28.6%
same,"viability, T/C",[18],26.8%
same,"viability, T/C","second compound 3.16 µM, first compound 0.00316 µM",49.7%
same,"viability, T/C","second compound 3.16 µM, first compound 0.01 µM",54%
same,"viability, T/C",[19],34.7%
same,"viability, T/C",[20],35.5%
same,"viability, T/C",[21],24.5%
same,"viability, T/C",[22],24.5%
same,"viability, T/C","second compound 10 µM, first compound 0.00316 µM",49.4%
same,"viability, T/C","second compound 10 µM, first compound 0.01 µM",35.1%
same,"viability, T/C",[23],42.4%
same,"viability, T/C",[24],33.6%
same,"viability, T/C",[25],27.8%
same,"viability, T/C",[26],30.7%
C=CC(=O)N1CCN(c2nc(=O)n(-c3c(C)ccnc3C(C)C)c3nc(-c4c(O)cccc4F)c(F)cc23)C(C)C1 (stereo not given) + Cc1c(S(C)(=O)=O)c(-c2cc(F)cc(N3CCN(c4ccc(NS(=O)(=O)c5ccc(NC(CCN6CCC(C(=O)OCCCP(=O)(O)O)CC6)CSc6ccccc6)c(S(=O)(=O)C(F)(F)F)c5)cc4)CC3)c2)c(-c2ccc(Cl)cc2)n1C(C)C,IC50,second compound 0.1 µM,> 10000 nM
same,IC50,second compound 0.316 µM,> 10000 nM
same,IC50,second compound 1 µM,> 10000 nM
same,IC50,second compound 3.16 µM,> 10000 nM
same,IC50,second compound 10 µM,> 10000 nM
same,"viability, T/C",[3],86.6%
same,"viability, T/C",[4],83.6%
same,"viability, T/C",[5],78.8%
same,"viability, T/C",[6],89.6%
same,"viability, T/C","second compound 0.1 µM, first compound 3.16 µM",80.1%
same,"viability, T/C","second compound 0.1 µM, first compound 10 µM",57.9%
same,"viability, T/C",[9],90.8%
same,"viability, T/C",[10],98.3%
same,"viability, T/C",[11],79.1%
same,"viability, T/C",[12],80%
same,"viability, T/C","second compound 0.316 µM, first compound 3.16 µM",81.8%
same,"viability, T/C","second compound 0.316 µM, first compound 10 µM",64.9%
same,"viability, T/C",[15],71.8%
same,"viability, T/C",[16],71.6%
same,"viability, T/C",[17],77.6%
same,"viability, T/C",[18],71.5%
same,"viability, T/C","second compound 1 µM, first compound 3.16 µM",73.6%
same,"viability, T/C","second compound 1 µM, first compound 10 µM",58.9%
same,"viability, T/C",[19],72.1%
same,"viability, T/C",[20],78.1%
same,"viability, T/C",[21],62.2%
same,"viability, T/C",[22],72%
same,"viability, T/C","second compound 3.16 µM, first compound 3.16 µM",66.4%
same,"viability, T/C","second compound 3.16 µM, first compound 10 µM",56.8%
same,"viability, T/C",[23],66.8%
same,"viability, T/C",[24],59.5%
same,"viability, T/C",[25],55.9%
same,"viability, T/C",[26],69.5%
same,"viability, T/C","second compound 10 µM, first compound 3.16 µM",59.6%
same,"viability, T/C","second compound 10 µM, first compound 10 µM",46.4%
